“And” between values parts separate entries of the source, which are not always exact repeats. Equal entries are not always repeated. Where two headings read alike, the source gives them in different places. Where a SMILES comes first, the peptide text is derived from it. Bridges are numbered along the chain shown (N, C = ends). [ ]: non-standard residue; d: D form. Nle = CCCC[C@H](N)C(=O)O
Molecular target: VEGF (Homo sapiens, UniProt P15692)
Conditions: for Δ(ΔG 20 °C) / Δ(ΔH 20 °C) / Δ(‐TΔS) 20 °C / Δ(ΔG 37 °C) / Δ(ΔH 37 °C) / Δ(‐TΔS) 37 °C / Δ(ΔCp): ± at P=95 %; for ΔG / −TΔS / ΔH / ΔCp: ITC, 95 % confidence interval in brackets; for ΔG / −TΔS / ΔH: 50 mM HEPES/NaOH, 150 mM NaCl, pH 7.5, first binding site; for ΔG: calculated from Kd (Eq. 1); for −TΔS: calculated from ΔG and ΔH (Eq. 2); for ΔH: normalised on reverse titrations; for ΔCp: heat capacity change on binding from ΔH at 20 °C and 37 °C (Eq. 3)
[1] = 20 °C, bicyclic peptide minus its monocyclic counterpart
[2] = 37 °C, bicyclic peptide minus its monocyclic counterpart
[3] = bicyclic peptide minus its monocyclic counterpart
[4] = 20 °C, monocyclic peptide minus peptide 4 (pairs 1–4, 3–4)
[5] = 37 °C, monocyclic peptide minus peptide 4 (pairs 1–4, 3–4)
[6] = 20 °C, peptide 2 minus peptide 1 (pair 2–1)
[7] = 20 °C, peptide 2 minus peptide 3 (pair 2–3)
[8] = 37 °C, peptide 2 minus peptide 1 (pair 2–1)
[9] = 37 °C, peptide 2 minus peptide 3 (pair 2–3)

Sequence of VEGF (P15692 219-313): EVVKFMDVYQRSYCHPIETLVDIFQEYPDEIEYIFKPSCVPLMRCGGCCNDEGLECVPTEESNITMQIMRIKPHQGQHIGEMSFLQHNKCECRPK

SMILES	Δ(ΔH 20 °C) [1] [kcal⋅mol^−1]	Δ(‐TΔS) 20 °C [1] [kcal⋅mol^−1]	Δ(ΔH 37 °C) [2] [kcal⋅mol^−1]	Δ(‐TΔS) 37 °C [2] [kcal⋅mol^−1]	ΔG (20 °C)	−TΔS (20 °C)	ΔH (20 °C)	ΔG (37 °C)	−TΔS (37 °C)	ΔH (37 °C)	ΔCp	Δ(ΔCp) [3] [kcal⋅mol^−1.K^−1]	also measured
CCCC[C@@H]1NC(=O)[C@H](C(C)C)NC(=O)[C@H](Cc2c[nH]cn2)NC(=O)[C@H]([C@@H](C)CC)NC(=O)[C@H](CC(=O)O)NC(=O)[C@@H](N)CSSC[C@@H]2NC(=O)[C@H](CCCCNC(=O)CC[C@@H](C(=O)N[C@@H](CC(C)C)C(N)=O)NC(=O)[C@H](CCC(=O)O)NC(=O)[C@H](Cc3ccccc3)NC2=O)NC(=O)[C@H](Cc2c[nH]c3ccccc23)NC(=O)[C@H](CCC(=O)O)NC(=O)[C@H](Cc2c[nH]c3ccccc23)NC1=O [4 c] (H-CDIHV[Nle]WEWKCFEEL-NH2; disulfide 1-11; lactam 10-14)	1.4±0.7	−1.3±0.9	0.8±1.2	−0.8±1.3	−9.16 [−9.27; −9.05] kcal⋅mol^−1	6.8 [6.1; 7.6] kcal⋅mol^−1	−16.0 [−16.6; −15.4] kcal⋅mol^−1	−8.68 [−8.79; −8.56] kcal⋅mol^−1	13.5 [12.5; 14.7] kcal⋅mol^−1	−22.2 [−23.2; −21.3] kcal⋅mol^−1	−0.37 [−0.43; −0.31] kcal⋅mol^−1.K^−1	−0.04±0.08	Δ(ΔG 20 °C) (20 °C, bicyclic peptide minus its monocyclic counterpart (1 c–1, 2 c–2, 3 c–3, 4 c–4)): 0.06±0.12 kcal⋅mol^−1; Δ(ΔG 37 °C) [2]: 0.04±0.14 kcal⋅mol^−1
CCCC[C@@H]1NC(=O)[C@H](C(C)C)NC(=O)[C@H](Cc2c[nH]cn2)NC(=O)[C@H]([C@@H](C)CC)NC(=O)[C@H](CC(=O)O)NC(=O)[C@@H](N)CSSC[C@@H]2NC(=O)[C@H](CCC(=O)NCCCC[C@@H](C(=O)N[C@@H](CC(C)C)C(N)=O)NC(=O)[C@H](CCC(=O)O)NC(=O)[C@H](Cc3ccccc3)NC2=O)NC(=O)[C@H](Cc2c[nH]c3ccccc23)NC(=O)[C@H](CCC(=O)O)NC(=O)[C@H](Cc2c[nH]c3ccccc23)NC1=O [3 c]	1.2±0.7	−1.6±0.8	0.6±0.6	−1.1±0.7	−.89 [−10.01; −9.78] kcal⋅mol^−1	6.1 [5.6; 6.5] kcal⋅mol^−1	−16.0 [−16.3; −15.6] kcal⋅mol^−1	−9.61 [−9.71; −9.52] kcal⋅mol^−1	12.8 [12.3; 13.2] kcal⋅mol^−1	−22.4 [−22.8; −22.0] kcal⋅mol^−1	−0.38 [−0.41; −0.35] kcal⋅mol^−1.K^−1	−0.04±0.05	
CCCC[C@@H]1NC(=O)[C@H](C(C)C)NC(=O)[C@H](Cc2c[nH]cn2)NC(=O)[C@H]([C@@H](C)CC)NC(=O)[C@H](CC(=O)O)NC(=O)[C@@H](N)CSSC[C@@H](C(=O)N[C@@H](Cc2ccccc2)C(=O)N[C@@H](CCC(=O)O)C(=O)N[C@@H](CC(=O)O)C(=O)N[C@@H](CC(C)C)C(N)=O)NC(=O)[C@H](CCCCN)NC(=O)[C@H](Cc2c[nH]c3ccccc23)NC(=O)[C@H](CCC(=O)O)NC(=O)[C@H](Cc2c[nH]c3ccccc23)NC1=O [compound 1] (H-CDIHV[Nle]WEWKCFEDL-NH2; disulfide 1-11)					−9.05 [−9.15; −8.97] kcal⋅mol^−1	8.7 [8.2; 9.3] kcal⋅mol^−1		−8.51 [−8.56; −8.46] kcal⋅mol^−1	14.2 [13.8; 14.7] kcal⋅mol^−1	−22.8 [−23.1; −22.4] kcal⋅mol^−1	−0.29 [−0.32; −0.26] kcal⋅mol^−1.K^−1		Δ(ΔG 20 °C) [4]: 0.2 ± 0.1 kcal⋅mol^−1 and 0.16±0.10 kcal⋅mol^−1; Δ(ΔH 20 °C) [4]: -0.4 ± 0.6 kcal⋅mol^−1; Δ(‐TΔS) 20 °C [4]: 0.6 ± 0.7 kcal⋅mol^−1; Δ(ΔG 37 °C) [5]: 0.2 ± 0.1 kcal⋅mol^−1 and 0.20±0.09 kcal⋅mol^−1; Δ(ΔH 37 °C) [5]: 0.2 ± 0.8 kcal⋅mol^−1; Δ(‐TΔS) 37 °C [5]: 0.0 ± 1.0 kcal⋅mol^−1; Δ(ΔCp) (monocyclic peptide minus peptide 4 (pairs 1–4, 3–4)): 0.04±0.06 kcal⋅mol^−1.K^−1
CCCC[C@@H]1NC(=O)[C@H](C(C)C)NC(=O)[C@H](Cc2c[nH]cn2)NC(=O)[C@H]([C@@H](C)CC)NC(=O)[C@H](CC(=O)O)NC(=O)[C@@H](N)CSSC[C@@H](C(=O)N[C@@H](Cc2ccccc2)C(=O)N[C@@H](CCC(=O)O)C(=O)N[C@@H](CCCCN)C(=O)N[C@@H](CC(C)C)C(N)=O)NC(=O)[C@H](CC(=O)O)NC(=O)[C@H](Cc2c[nH]c3ccccc23)NC(=O)[C@H](CCC(=O)O)NC(=O)[C@H](Cc2c[nH]c3ccccc23)NC1=O [compound 2]					−9.13 [−9.21; −9.05] kcal⋅mol^−1	6.7 [6.3; 7.1] kcal⋅mol^−1		−8.76 [−8.82; −8.70] kcal⋅mol^−1	13.3 [12.7; 13.9] kcal⋅mol^−1	−22.0 [−22.6; −21.5] kcal⋅mol^−1	−0.36 [−0.40; −0.32] kcal⋅mol^−1.K^−1		Δ(ΔG 20 °C) [6]: −0.08±0.12 kcal⋅mol^−1; Δ(ΔH 20 °C) [6]: 2.0 ± 0.6 kcal⋅mol^−1; Δ(ΔG 20 °C) [7]: 0.3 ± 0.2 kcal⋅mol^−1 and 0.33±0.12 kcal⋅mol^−1; Δ(ΔH 20 °C) [7]: 1.4 ± 0.6 kcal⋅mol^−1; Δ(‐TΔS) 20 °C [7]: -1.0 kcal⋅mol^−1 and −1.0±0.8 kcal⋅mol^−1; Δ(ΔG 37 °C) [8]: −0.25±0.08 kcal⋅mol^−1; Δ(ΔH 37 °C) [8]: 0.7 ± 0.7 kcal⋅mol^−1; Δ(‐TΔS) 37 °C [8]: -1.0 ± 0.8 kcal⋅mol^−1; Δ(ΔG 37 °C) [9]: 0.3 ± 0.1 kcal⋅mol^−1 and 0.34±0.08 kcal⋅mol^−1; Δ(ΔH 37 °C) [9]: 1.0 ± 0.7 kcal⋅mol^−1; Δ(‐TΔS) 37 °C [9]: -0.6 ± 0.8 kcal⋅mol^−1; Δ(ΔCp) (peptide 2 minus peptide 1 (pair 2–1)): −0.07±0.05 kcal⋅mol^−1.K^−1; Δ(ΔCp) (peptide 2 minus peptide 3 (pair 2–3)): −0.02±0.05 kcal⋅mol^−1.K^−1
CCCC[C@@H]1NC(=O)[C@H](C(C)C)NC(=O)[C@H](Cc2c[nH]cn2)NC(=O)[C@H]([C@@H](C)CC)NC(=O)[C@H](CC(=O)O)NC(=O)[C@@H](N)CSSC[C@@H](C(=O)N[C@@H](Cc2ccccc2)C(=O)N[C@@H](CCC(=O)O)C(=O)N[C@@H](CCC(=O)O)C(=O)N[C@@H](CC(C)C)C(N)=O)NC(=O)[C@H](CCCCN)NC(=O)[C@H](Cc2c[nH]c3ccccc23)NC(=O)[C@H](CCC(=O)O)NC(=O)[C@H](Cc2c[nH]c3ccccc23)NC1=O [compound 4] (H-CDIHV[Nle]WEWKCFEEL-NH2; disulfide 1-11)					−9.22 [−9.27; −9.16] kcal⋅mol^−1	8.2 [7.8; 8.5] kcal⋅mol^−1	−17.4 [−17.7; −17.1] kcal⋅mol^−1	−8.71 [−8.80; −8.63] kcal⋅mol^−1	14.3 [13.5; 15.1] kcal⋅mol^−1	−23.0 [−23.7; −22.3] kcal⋅mol^−1	−0.33 [−0.38; −0.28] kcal⋅mol^−1.K^−1		
